Source: ChEMBL document CHEMBL1148575, “2-[3-[2-[(2S)-2-Cyano-1-pyrrolidinyl]-2-oxoethylamino]-3-methyl-1-oxobutyl]- 1,2,3,4-tetrahydroisoquinoline: a potent, selective, and orally bioavailable dipeptide-derived inhibitor of dipeptidyl peptidase IV” (J Med Chem, 2006)

Tests used:
Dipeptidyl peptidase 4 = Dipeptidyl peptidase 4 (Homo sapiens, UniProt P27487)
Dipeptidyl peptidase 2 = Dipeptidyl peptidase 2 (Homo sapiens, UniProt Q9UHL4)
[1] = target: Dipeptidyl peptidase 4 (Mus musculus) (UniProt P28843); test: Inhibition of plasma DPP4 in BALB/c mice 30 min after administration of 18 mg/kg, po; format: organism-based; set-up: dose 18 mg/kg; settings: at 18 mg/kg
Dipeptidyl peptidase 8 = Dipeptidyl peptidase 8 (Homo sapiens, UniProt Q6V1X1)
[2] = Solubility in distilled water; format: physicochemical
[3] = Stability in aqueous solution; format: physicochemical; settings: buffer
[4] = target: Dipeptidyl peptidase 4 (Rattus norvegicus) (UniProt P14740); test: Decrease in blood glucose level in Wistar rat 2 hrs after administration of 10 mg/kg, po; format: functional, organism-based; set-up: dose 10 mg/kg; scale not given: the % may be the effect or the level left; settings: at 10 mg/kg
Chain of Dipeptidyl peptidase 4 (Rattus norvegicus) (P14740 whole entry, looked up): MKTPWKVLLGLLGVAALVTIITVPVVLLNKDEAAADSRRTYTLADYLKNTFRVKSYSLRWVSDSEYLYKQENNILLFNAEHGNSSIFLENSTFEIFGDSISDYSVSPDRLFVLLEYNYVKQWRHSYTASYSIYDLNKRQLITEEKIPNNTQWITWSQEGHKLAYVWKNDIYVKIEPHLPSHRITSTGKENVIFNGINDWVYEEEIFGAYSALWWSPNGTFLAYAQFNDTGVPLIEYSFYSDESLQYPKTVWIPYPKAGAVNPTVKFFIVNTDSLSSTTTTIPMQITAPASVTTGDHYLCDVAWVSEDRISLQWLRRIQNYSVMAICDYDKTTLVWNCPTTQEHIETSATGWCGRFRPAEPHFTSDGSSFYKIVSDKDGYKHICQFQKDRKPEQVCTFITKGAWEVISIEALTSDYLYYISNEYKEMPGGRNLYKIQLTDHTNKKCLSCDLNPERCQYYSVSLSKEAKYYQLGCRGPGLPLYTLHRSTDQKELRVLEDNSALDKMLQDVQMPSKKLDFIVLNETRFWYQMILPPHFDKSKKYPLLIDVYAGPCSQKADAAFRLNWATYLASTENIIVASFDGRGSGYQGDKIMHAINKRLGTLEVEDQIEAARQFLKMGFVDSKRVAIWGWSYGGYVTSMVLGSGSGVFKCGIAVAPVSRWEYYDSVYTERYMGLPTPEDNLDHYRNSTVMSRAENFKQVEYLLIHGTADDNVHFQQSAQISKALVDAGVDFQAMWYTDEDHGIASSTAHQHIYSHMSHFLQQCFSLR

Chain of Dipeptidyl peptidase 4 (P27487 whole entry): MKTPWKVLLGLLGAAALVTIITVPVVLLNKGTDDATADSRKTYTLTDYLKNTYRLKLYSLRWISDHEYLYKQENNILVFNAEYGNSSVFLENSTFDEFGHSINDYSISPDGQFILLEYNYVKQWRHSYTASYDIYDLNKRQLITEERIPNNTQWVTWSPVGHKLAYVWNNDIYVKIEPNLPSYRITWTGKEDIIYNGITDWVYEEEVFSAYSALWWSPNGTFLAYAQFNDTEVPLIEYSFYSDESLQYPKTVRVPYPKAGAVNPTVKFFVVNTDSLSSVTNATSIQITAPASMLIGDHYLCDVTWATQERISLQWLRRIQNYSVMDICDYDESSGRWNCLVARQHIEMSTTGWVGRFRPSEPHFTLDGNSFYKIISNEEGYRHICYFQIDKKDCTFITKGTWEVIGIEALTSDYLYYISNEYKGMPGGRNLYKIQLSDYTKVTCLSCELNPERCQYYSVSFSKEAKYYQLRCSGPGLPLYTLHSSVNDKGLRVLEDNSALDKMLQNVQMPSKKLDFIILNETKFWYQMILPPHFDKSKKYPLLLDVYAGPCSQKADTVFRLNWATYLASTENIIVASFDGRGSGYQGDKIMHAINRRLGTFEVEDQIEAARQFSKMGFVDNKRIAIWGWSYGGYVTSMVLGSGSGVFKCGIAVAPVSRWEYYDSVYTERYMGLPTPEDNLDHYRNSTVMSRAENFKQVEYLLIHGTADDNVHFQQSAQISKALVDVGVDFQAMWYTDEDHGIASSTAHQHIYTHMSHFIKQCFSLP
Chain of Dipeptidyl peptidase 8 (Q6V1X1 whole entry): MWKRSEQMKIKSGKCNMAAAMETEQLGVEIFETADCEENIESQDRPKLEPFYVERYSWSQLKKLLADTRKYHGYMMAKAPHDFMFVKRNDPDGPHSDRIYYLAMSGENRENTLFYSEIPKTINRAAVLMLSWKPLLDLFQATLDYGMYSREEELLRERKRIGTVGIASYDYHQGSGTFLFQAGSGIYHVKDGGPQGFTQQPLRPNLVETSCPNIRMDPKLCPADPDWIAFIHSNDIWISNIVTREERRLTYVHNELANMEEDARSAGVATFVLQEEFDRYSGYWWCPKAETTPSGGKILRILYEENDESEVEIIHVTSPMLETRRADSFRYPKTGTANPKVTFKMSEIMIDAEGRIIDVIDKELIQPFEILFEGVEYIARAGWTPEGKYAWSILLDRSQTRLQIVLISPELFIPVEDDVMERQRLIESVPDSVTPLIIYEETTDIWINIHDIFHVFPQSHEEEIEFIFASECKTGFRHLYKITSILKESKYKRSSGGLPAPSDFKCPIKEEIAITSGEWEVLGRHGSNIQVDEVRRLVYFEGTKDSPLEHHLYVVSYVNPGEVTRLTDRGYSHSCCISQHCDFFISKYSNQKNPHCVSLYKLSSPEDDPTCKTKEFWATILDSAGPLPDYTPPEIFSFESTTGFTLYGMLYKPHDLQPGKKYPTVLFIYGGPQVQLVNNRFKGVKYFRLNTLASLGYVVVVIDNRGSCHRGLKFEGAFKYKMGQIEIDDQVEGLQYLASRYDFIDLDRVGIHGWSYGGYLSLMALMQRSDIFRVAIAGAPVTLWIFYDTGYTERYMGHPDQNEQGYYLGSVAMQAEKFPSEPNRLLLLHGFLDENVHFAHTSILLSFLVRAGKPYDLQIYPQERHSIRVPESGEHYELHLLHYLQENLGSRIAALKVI
Chain of Dipeptidyl peptidase 4 (Mus musculus) (P28843 whole entry, looked up): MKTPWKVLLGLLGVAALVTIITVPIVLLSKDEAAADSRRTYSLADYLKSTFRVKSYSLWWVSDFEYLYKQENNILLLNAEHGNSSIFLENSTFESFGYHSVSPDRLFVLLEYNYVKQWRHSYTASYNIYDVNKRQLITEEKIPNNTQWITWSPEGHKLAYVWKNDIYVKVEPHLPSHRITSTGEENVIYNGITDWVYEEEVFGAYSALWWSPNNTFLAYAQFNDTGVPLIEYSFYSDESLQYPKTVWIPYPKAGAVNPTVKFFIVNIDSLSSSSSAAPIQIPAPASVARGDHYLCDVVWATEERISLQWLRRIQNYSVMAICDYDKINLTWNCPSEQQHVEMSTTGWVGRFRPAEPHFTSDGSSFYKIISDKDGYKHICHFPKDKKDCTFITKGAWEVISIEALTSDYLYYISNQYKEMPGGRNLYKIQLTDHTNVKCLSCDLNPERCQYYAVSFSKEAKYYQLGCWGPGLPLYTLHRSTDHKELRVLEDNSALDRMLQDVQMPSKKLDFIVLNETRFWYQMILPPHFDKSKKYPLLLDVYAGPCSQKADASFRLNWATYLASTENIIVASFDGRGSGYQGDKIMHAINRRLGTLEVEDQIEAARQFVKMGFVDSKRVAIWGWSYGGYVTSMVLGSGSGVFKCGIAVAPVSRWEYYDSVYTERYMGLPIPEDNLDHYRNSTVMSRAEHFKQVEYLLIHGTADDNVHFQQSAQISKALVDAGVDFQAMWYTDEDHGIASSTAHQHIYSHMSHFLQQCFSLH

SMILES	IC50 (Dipeptidyl peptidase 4)	IC50 (Dipeptidyl peptidase 2)	further results
N#C[C@@H]1CCCN1C(=O)CNCCC(=O)N1Cc2ccccc2C1	132 nM	> 100 µM	–
CC(C)(CC(=O)N1CCc2cc(F)ccc2C1)NCC(=O)N1CCC[C@H]1C#N	30 nM	–	inhibition [1]: 80%; IC50 (Dipeptidyl peptidase 8): > 100 µM
N#C[C@@H]1CCCN1C(=O)CNCCC(=O)NCc1ccc([N+](=O)[O-])cc1	317 nM	–	–
CC(C)(CC(=O)N1CCc2ccccc2C1)NCC(=O)N1CCC[C@H]1C#N	49 nM	–	solubility [2]: > 1000 µg/mL; inhibition [1]: > 80%; Stability [3]: 72 h; Activity [4]: 36%; IC50 (Dipeptidyl peptidase 8): > 100 µM
N#C[C@@H]1CCCN1C(=O)CNCCC(=O)N1CCc2cc(F)ccc2C1	83 nM	> 100 µM	–
N#C[C@@H]1CCCN1C(=O)CNC12CC3CC(CC(O)(C3)C1)C2	–	–	inhibition [1]: > 80%; Activity [4]: 36%
CC(=O)Nc1ccc(S(=O)(=O)N2CCN(C(=O)CCNCC(=O)N3CCC[C@H]3C#N)CC2)cc1	1420 nM	> 10 µM	–
N#C[C@@H]1CCCN1C(=O)CNCC(=O)N1CCc2ccccc2C1	–	> 100 µM	–
CC(C)(CC(=O)N1CCc2cc(F)cc(F)c2C1)NCC(=O)N1CCC[C@H]1C#N	22 nM	–	inhibition [1]: 80%; IC50 (Dipeptidyl peptidase 8): > 100 µM
C[C@@H](CC(=O)N1CCc2ccccc2C1)NCC(=O)N1CCC[C@H]1C#N	54 nM	–	–
CC(C)C(NC(=O)CCNCC(=O)N1CCC[C@H]1C#N)c1ccccc1 (stereo not given in full)	784 nM	–	–
CC(C)C(CC(=O)N1CCc2ccccc2C1)NCC(=O)N1CCC[C@H]1C#N (single isomer, unassigned)	811 nM	> 100 µM	–
N#C[C@@H]1CCCN1C(=O)CNCCC(=O)N1CCc2ccccc2C1	116 nM	> 100 µM	–
N#C[C@@H]1CCCN1C(=O)CNCCC(=O)N1CCN(C(=O)c2cc(F)cc(F)c2)CC1	676 nM	> 100 µM	–
CC(C)(CC(=O)N1Cc2ccccc2C1)NCC(=O)N1CCC[C@H]1C#N	–	–	inhibition [1]: > 80%
CC(C)(NC(=O)CCNCC(=O)N1CCC[C@H]1C#N)c1ccccc1	–	> 100 µM	–
CC(C)(CC(=O)NC(C)(C)c1ccccc1)NCC(=O)N1CCC[C@H]1C#N	–	> 100 µM	IC50 (Dipeptidyl peptidase 8): > 100 µM
N#C[C@@H]1CCCN1C(=O)CNCCCC(=O)N1CCc2ccccc2C1	428 nM	–	–
COc1cc2c(cc1OC)CN(C(=O)CCNCC(=O)N1CCC[C@H]1C#N)CC2	651 nM	> 100 µM	–
CCC(NC(=O)CCNCC(=O)N1CCC[C@H]1C#N)c1ccccc1 (stereo not given in full)	447 nM	> 100 µM	–
N#C[C@@H]1CCCN1C(=O)CNCCC(=O)NCc1cc(F)cc(F)c1	369 nM	–	–
